From ChEMBL document CHEMBL1201862, “PubChem BioAssay data set” (2004)
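A five-concentration, 48-hour dose response in 96-well plates underlies each endpoint, interpolated linearly between surrounding concentrations. Abbreviation: GI50, concentration required for 50% inhibition of growth.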 Active and inactive are the calls of the source. Rule as the data show it: active = GI50 up to about 1.1 µM and inactive = higher.

Experiments:
Experiment in all cases: NCI tumour cell line growth inhibition, 48 h
[1] = test system: OVCAR-3
[2] = test system: MCF7
[3] = test system: MOLT-4
[4] = test system: KM12
[5] = test system: HCT-15
[6] = test system: SF-268
[7] = test system: IGROV-1
[8] = test system: EKVX
[9] = test system: OVCAR-4
[10] = test system: SR
[11] = test system: SW-620
[12] = test system: A549
[13] = test system: HCT-116
[14] = test system: MDA-MB-435
[15] = test system: U-251
[16] = test system: PC-3
[17] = test system: MDA-MB-231
[18] = test system: RXF 393
[19] = test system: Hs-578T

Compound	GI50 [1]	GI50 [2]	GI50 [3]	GI50 [4]	GI50 [5] [µM]	GI50 [6]	GI50 [7]	GI50 [8]	GI50 [9]	GI50 [10]	GI50 [11]	GI50 [12]	GI50 [13]	GI50 [14]	GI50 [15]	GI50 [16]	GI50 [17]	GI50 [18]	GI50 [19]
Cn1c2c(c3c(=O)[nH]ncc31)CCc1ccccc1-2	26.4 µM (inactive)	21.6 µM (inactive)	21.8 µM (inactive)	23 µM (inactive)	24.8	31.2 µM (inactive)	19 µM (inactive)	12.9 µM (inactive)	44.7 µM (inactive)	20.5 µM (inactive)	34.1 µM (inactive)	29.1 µM (inactive)	20.1 µM (inactive)	32.1 µM (inactive)	33.5 µM (inactive)	28.2 µM (inactive)	21.1 µM (inactive)	18.8 µM (inactive)	10.2 µM (inactive)
O=C(CCCN1CCC(Nc2ccccc2)(c2nnnn2C2CCCCC2)CC1)c1ccc(F)cc1	9.27 µM (inactive)	2.28 µM (inactive)	14 µM (inactive)	8.47 µM (inactive)	8.28	2.4 µM (inactive)	11.1 µM (inactive)	3.3 µM (inactive)	6.34 µM (inactive)	6.67 µM (inactive)	6.76 µM (inactive)	3.49 µM (inactive)	4.48 µM (inactive)	6.62 µM (inactive)	5.86 µM (inactive)	3.94 µM (inactive)	8.65 µM (inactive)	9.64 µM (inactive)	10.3 µM (inactive)
CCOC(=O)C(Cl)(Cl)/S(=N\S(=O)(=O)c1ccccc1)NC(=O)c1ccccc1 (centres undefined)	> 100 µM (inactive)	> 100 µM (inactive)	> 100 µM (inactive)	> 100 µM (inactive)	> 100	> 100 µM (inactive)	> 100 µM (inactive)	> 100 µM (inactive)	> 100 µM (inactive)	> 100 µM (inactive)	> 100 µM (inactive)	> 100 µM (inactive)	> 100 µM (inactive)	> 100 µM (inactive)	> 100 µM (inactive)	> 100 µM (inactive)	> 100 µM (inactive)	> 100 µM (inactive)	> 100 µM (inactive)
O=C1C2C(c3ccccc3)NC(c3ccccc3)C1C(c1ccccc1)NC2c1ccccc1 (centres undefined)	> 100 µM (inactive)	> 100 µM (inactive)	> 100 µM (inactive)	> 100 µM (inactive)	> 100	> 100 µM (inactive)	> 100 µM (inactive)	> 100 µM (inactive)	> 100 µM (inactive)	> 100 µM (inactive)	> 100 µM (inactive)	> 100 µM (inactive)	> 100 µM (inactive)	> 100 µM (inactive)	> 100 µM (inactive)	> 100 µM (inactive)	> 100 µM (inactive)	> 100 µM (inactive)	> 100 µM (inactive)
Cc1cc(S(=O)(=O)O)c(NC(=O)c2oc3cc(O)ccc3c(=O)c2C)cc1Cl	> 100 µM (inactive)	> 100 µM (inactive)	> 100 µM (inactive)	> 100 µM (inactive)	> 100	> 100 µM (inactive)	> 100 µM (inactive)	> 100 µM (inactive)	> 100 µM (inactive)	> 10 µM (inactive)	> 100 µM (inactive)	> 100 µM (inactive)	> 100 µM (inactive)	> 100 µM (inactive)	> 100 µM (inactive)	> 100 µM (inactive)	> 100 µM (inactive)	> 100 µM (inactive)	> 100 µM (inactive)
CC[C@@]1(O)C(=O)OCc2c1cc1n(c2=O)Cc2c-1nc1ccccc1c2/C=N\NC(=O)CN	6.9 µM (inactive)	0.0495 µM (active)	< 0.0316 µM (active)	6.14 µM (inactive)	0.221	0.0387 µM (active)	2.59 µM (inactive)	12 µM (inactive)	9.46 µM (inactive)	< 0.0125 µM (active)	0.315 µM (active)	0.687 µM (active)	0.419 µM (active)	1.61 µM (inactive)	0.135 µM (active)	4.73 µM (inactive)	23 µM (inactive)	0.873 µM (active)	> 40.5 µM (inactive)
Cc1ccc([N+](=O)[O-])c2c(NCCNC(=O)Cn3ccnc3[N+](=O)[O-])ccnc12	23.2 µM (inactive)	18.9 µM (inactive)	> 100 µM (inactive)	52.2 µM (inactive)	> 100	36.5 µM (inactive)	25.6 µM (inactive)	> 100 µM (inactive)	33.3 µM (inactive)	> 100 µM (inactive)	37.7 µM (inactive)	48.5 µM (inactive)	43.7 µM (inactive)	94.6 µM (inactive)	36.6 µM (inactive)	28.8 µM (inactive)	32 µM (inactive)	1.42 µM (inactive)	28.3 µM (inactive)
COc1ccc(/N=N/C(=N\c2ccc(Cl)cc2)c2ccc(N(CCC#N)CCC#N)cc2)cc1	23.9 µM (inactive)	8.05 µM (inactive)	15.3 µM (inactive)	15.6 µM (inactive)	2.39	41.3 µM (inactive)	56.4 µM (inactive)	51.4 µM (inactive)	10.1 µM (inactive)	0.834 µM (active)	24.7 µM (inactive)	47.6 µM (inactive)	43.9 µM (inactive)	7.23 µM (inactive)	41.4 µM (inactive)	25.5 µM (inactive)	14.8 µM (inactive)	12.7 µM (inactive)	87.9 µM (inactive)
O=C1CN(C(=O)C2CCCN2C(=O)C2CCCN2)C(=O)CN1 (centres undefined)	> 100 µM (inactive)	> 100 µM (inactive)	> 100 µM (inactive)	> 100 µM (inactive)	> 100	> 100 µM (inactive)	> 100 µM (inactive)	> 100 µM (inactive)	> 100 µM (inactive)	> 100 µM (inactive)	> 100 µM (inactive)	> 100 µM (inactive)	> 100 µM (inactive)	36.8 µM (inactive)	> 100 µM (inactive)	> 100 µM (inactive)	> 100 µM (inactive)	> 100 µM (inactive)	> 100 µM (inactive)
C=C1C(=O)O[C@H]2[C@H]1[C@H](OC(=O)/C(C)=C\C)C[C@]1(CO1)[C@@H]1[C@H](OC(C)=O)C=C(C)[C@]21O [EUPAROTIN ACETATE]	14.7 µM (inactive)	6.79 µM (inactive)	5.18 µM (inactive)	19 µM (inactive)	13.3	19.2 µM (inactive)	19.5 µM (inactive)	17 µM (inactive)	32.8 µM (inactive)	3.64 µM (inactive)	8.85 µM (inactive)	69.2 µM (inactive)	6.58 µM (inactive)	17.9 µM (inactive)	21.9 µM (inactive)	23.1 µM (inactive)	16.5 µM (inactive)	10.8 µM (inactive)	> 56.2 µM (inactive)
Nc1ncnc2c1ccn2C1OC2COP(=O)(O)OC2C1O (centres undefined)	0.275 µM (active)	0.444 µM (active)	0.681 µM (active)	0.363 µM (active)	0.152	0.46 µM (active)	0.488 µM (active)	2.64 µM (inactive)	0.174 µM (active)	0.173 µM (active)	0.261 µM (active)	0.365 µM (active)	0.17 µM (active)	0.273 µM (active)	0.31 µM (active)	0.163 µM (active)	0.33 µM (active)	0.212 µM (active)	0.502 µM (active)
Cn1c(=O)c2[nH]c(N/N=C3/SCC(=O)N3Cc3ccccc3)nc2n(C)c1=O	74.5 µM (inactive)	19.4 µM (inactive)	29 µM (inactive)	48.2 µM (inactive)	> 100	33.3 µM (inactive)	> 100 µM (inactive)	42.1 µM (inactive)	41.6 µM (inactive)	24.9 µM (inactive)	–	> 100 µM (inactive)	45.4 µM (inactive)	19.1 µM (inactive)	55.3 µM (inactive)	> 100 µM (inactive)	51.9 µM (inactive)	> 100 µM (inactive)	17.1 µM (inactive)
CC(C)CCCC(C)[C@H]1CC[C@H]2N/C(=N/c3ccccc3)CCC[C@]12C (some centres undefined)	2.29 µM (inactive)	1.79 µM (inactive)	1.64 µM (inactive)	2.43 µM (inactive)	1.07	2.06 µM (inactive)	1.61 µM (inactive)	–	3.56 µM (inactive)	1.77 µM (inactive)	3.21 µM (inactive)	2.81 µM (inactive)	2.28 µM (inactive)	1.88 µM (inactive)	1.82 µM (inactive)	2.97 µM (inactive)	1.14 µM (inactive)	1.42 µM (inactive)	2.26 µM (inactive)
COC(=O)c1ccc(/C=N/c2ccc(S(N)(=O)=O)cc2)cc1	87.1 µM (inactive)	41.8 µM (inactive)	38.4 µM (inactive)	> 100 µM (inactive)	> 100	> 100 µM (inactive)	–	> 100 µM (inactive)	97.9 µM (inactive)	43 µM (inactive)	–	> 100 µM (inactive)	37.1 µM (inactive)	35.4 µM (inactive)	67 µM (inactive)	> 100 µM (inactive)	> 100 µM (inactive)	> 100 µM (inactive)	38.2 µM (inactive)
CC(C)(C)/C(O)=C\c1nc2cc(F)c(F)cc2[nH]c1=O	–	> 100 µM (inactive)	48.4 µM (inactive)	> 100 µM (inactive)	> 100	> 100 µM (inactive)	> 100 µM (inactive)	> 100 µM (inactive)	> 100 µM (inactive)	> 100 µM (inactive)	> 100 µM (inactive)	–	> 100 µM (inactive)	> 100 µM (inactive)	> 100 µM (inactive)	> 100 µM (inactive)	25.1 µM (inactive)	> 100 µM (inactive)	> 100 µM (inactive)
